Paper PMC9610492, “BRD9 Inhibition by Natural Polyphenols Targets DNA Damage/Repair and Apoptosis in Human Colon Cancer Cells” (Nutrients, 2022)
Like-named read-outs stand apart in the source and are kept apart here. Values belong to the compound of their own block, whether it stands above or below them.

What was measured:
Assay type in all cases: binding
[1] = molecular target: T1, BRD9 (bromodomain-containing protein 9) (Homo sapiens, UniProt Q9H8M2); test: ITC with purified BRD9 (N = […]); BROMOscan […] inhibition at […]
T1 sequence (Q9H8M2 1-597): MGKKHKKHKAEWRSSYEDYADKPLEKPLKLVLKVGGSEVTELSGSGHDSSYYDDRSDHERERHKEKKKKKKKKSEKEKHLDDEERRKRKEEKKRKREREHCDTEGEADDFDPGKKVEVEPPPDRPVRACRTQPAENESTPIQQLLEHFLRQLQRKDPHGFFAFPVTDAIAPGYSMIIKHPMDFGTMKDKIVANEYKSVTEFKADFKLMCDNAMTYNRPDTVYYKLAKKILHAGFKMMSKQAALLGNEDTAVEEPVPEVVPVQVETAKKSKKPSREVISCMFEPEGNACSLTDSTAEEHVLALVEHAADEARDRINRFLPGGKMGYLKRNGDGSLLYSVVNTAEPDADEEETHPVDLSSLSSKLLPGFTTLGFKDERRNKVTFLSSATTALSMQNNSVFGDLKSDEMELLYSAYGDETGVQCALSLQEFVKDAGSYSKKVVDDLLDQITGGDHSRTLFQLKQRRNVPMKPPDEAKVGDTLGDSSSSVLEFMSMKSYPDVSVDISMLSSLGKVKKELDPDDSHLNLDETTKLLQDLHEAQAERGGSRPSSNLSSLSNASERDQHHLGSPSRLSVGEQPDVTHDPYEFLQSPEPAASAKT

[2] = molecular target: T1, BRD9 (bromodomain-containing protein 9); test: BROMOscan at […], blinded positive control
[3] = molecular target: T1, BRD9 (bromodomain-containing protein 9); test: ITC with purified BRD9 (N = […]); BROMOscan […] inhibition at […]; remark: listed apart in the source

SMILES: O=C(CCc1ccc(O)c(O)c1)c1c(O)cc(O)c([C@@H]2O[C@H](CO)[C@@H](O)[C@H](O)[C@H]2O)c1O [Aspalathin]
Kd [1]: 20 µM

inhibition at 10 µM [2]: 99%
SMILES: CCn1cc(-c2cccc(C(F)(F)F)c2)c2sc(C(=N)NC3CCS(=O)(=O)CC3)cc2c1=O [iBRD9]

SMILES: O=c1cc(-c2ccc(O)c(O)c2)oc2c([C@@H]3O[C@H](CO)[C@@H](O)[C@H](O)[C@H]3O)c(O)cc(O)c12 [Orientin]
Kd [3]: 20 µM
